Measurements from patent US7709500B2, “Chemical compounds” (AstraZeneca AB, priority 2002, dated 2010).
Counter-ions that a name gives are not always drawn.

What was measured:
CCR3 = biological target: T1, CCR3 (Homo sapiens, UniProt P51677); assay: Human eosinophil chemotaxis (eotaxin mediated); assay type: cell-based; details: read-out: % inhibition at 3 nM eotaxin (1 uM compound), human eosinophils
T1 construct: Human eosinophils were isolated from EDTA anticoagulated peripheral blood; endogenous in cells; host or cells: human peripheral blood eosinophils
T1 sequence (P51677 1-355): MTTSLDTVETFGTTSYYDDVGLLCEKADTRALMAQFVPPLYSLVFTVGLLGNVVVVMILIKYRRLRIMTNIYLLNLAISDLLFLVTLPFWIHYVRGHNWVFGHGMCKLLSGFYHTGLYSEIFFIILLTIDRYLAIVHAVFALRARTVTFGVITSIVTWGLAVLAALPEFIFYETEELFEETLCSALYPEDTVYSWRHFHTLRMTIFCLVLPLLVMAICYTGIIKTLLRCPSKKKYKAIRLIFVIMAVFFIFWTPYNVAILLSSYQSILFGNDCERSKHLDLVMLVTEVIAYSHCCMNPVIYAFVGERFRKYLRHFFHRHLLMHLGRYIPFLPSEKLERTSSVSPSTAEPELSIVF

human H1 receptor = biological target: T2, human H1 receptor (Homo sapiens, UniProt P35367); assay: Histamine H1 receptor binding, competition displacement of [3H]-pyrilamine; details: 1 nM [3H]-pyrilamine; membranes from recombinant CHO-K1 cells expressing the human H1 receptor; read-out: H1 pKi/[1328_S] (converted)
T2 construct: purchased Euroscreen SA, Brussels, Belgium ES-390-M; host or cells: recombinant CHO-K1 cells (membranes)
T2 sequence (P35367 whole entry): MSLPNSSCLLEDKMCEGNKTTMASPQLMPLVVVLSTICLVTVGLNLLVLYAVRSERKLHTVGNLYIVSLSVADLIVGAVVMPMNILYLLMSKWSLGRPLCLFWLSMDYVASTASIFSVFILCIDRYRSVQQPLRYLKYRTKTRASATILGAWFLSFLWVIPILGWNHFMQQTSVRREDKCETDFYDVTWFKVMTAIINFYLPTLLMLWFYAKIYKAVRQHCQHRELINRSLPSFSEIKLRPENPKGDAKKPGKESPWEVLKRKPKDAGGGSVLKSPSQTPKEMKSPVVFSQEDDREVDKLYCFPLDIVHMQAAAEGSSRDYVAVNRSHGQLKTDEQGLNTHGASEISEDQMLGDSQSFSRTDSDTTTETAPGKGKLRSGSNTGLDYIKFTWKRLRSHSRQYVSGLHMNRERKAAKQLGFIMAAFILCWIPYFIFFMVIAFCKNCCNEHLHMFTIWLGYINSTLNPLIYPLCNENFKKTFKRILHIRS

inhibition at 1 µM (CCR3) [%]	Ki (human H1 receptor) [nM]	SMILES
104	63.1	O=C(NC[C@@H](O)CN1CCC(Oc2ccc(Cl)c(Cl)c2)CC1)[C@@H](O)c1ccccc1 [Example 58, (2S)-N-{(2R)-3-[4-(3,4-Dichlorophenoxy)piperidin-1-yl]-2-hydroxypropyl}-2-hyroxy-2-phenylethanamide]
106		O=C(NC[C@@H](O)CN1CCC(Oc2ccc(Cl)c(Cl)c2)CC1)c1c[nH]c(=O)c2ccccc12 [Example 10, N-{(2R)-3-[4-(3,4-Dichlorophenoxy)piperidin-1-yl]-2-hydroxypropyl}-1-oxo-1,2-dihydroisoquinoline-4-carboxamide]
105	7.94	CN(C[C@@H](O)CN1CCC(Oc2ccc(Cl)c(Cl)c2)CC1)C(=O)c1n[nH]c2ccccc12 [Example 53, N-{(2S)-3-[4-(3,4-Dichlorophenoxy)piperidin-1-yl]-2-hydroxypropyl}-N-methyl-1H-indazole-3-carboxamide]
105		O=C(NC[C@@H](O)CN1CCC(Oc2ccc(Cl)c(Cl)c2)CC1)c1n[nH]c(=O)c2ccccc12 [Example 46, N-{(2R)-3-[4-(3,4-Dichlorophenoxy)piperidin-1-yl]-2-hydroxypropyl}-oxo-3,4-dihydrophthalazine-1-carboxamide]
103	7.94	Cc1c(Cl)ccc(OC2CCN(C[C@H](O)CNC(=O)c3c[nH]c(=O)c4ccccc34)CC2)c1Cl [Example 17, N-{(2R)-3-[4-(2,4-Dichloro-3-methylphenoxy)piperidin-1-yl]-2-hydroxypropyl}-1-oxo-1,2-dihydroisoquinoline-4-carboxamide]
103		N#Cc1ccc(OC2CCN(C[C@H](O)CNC(=O)c3c[nH]c(=O)c4ccccc34)CC2)cc1Cl [Example 197, N-{(2R)-3-[4-(3-Chloro-4-cyanophenoxy)piperidin-1-yl]-2-hydroxypropyl}-1-oxo-1,2-dihydroisoquinoline-4-carboxamide]
101		NC(=O)c1c(OC2CCN(C[C@H](O)CNC(=O)c3c[nH]c(=O)c4ccccc34)CC2)ccc(Cl)c1Cl [Example 132]
99		CS(=O)(=O)c1ccc2c(C(=O)NC[C@@H](O)CN3CCC(Oc4ccc(C#N)c(Cl)c4)CC3)c[nH]c(=O)c2c1 [Example 206, N-{(2R)-3-[4-(3-Chloro-4-cyanophenoxy)piperidin-1-yl]-2-hydroxypropyl}-7-(methylsulfonyl)-1-oxo-1,2-dihydroisoquinoline-4-carboxamide]
95	3.98	CN(C[C@@H](O)CN1CCC(Oc2ccc(Cl)c(Cl)c2)CC1)C(=O)c1c[nH]c(=O)c2ccccc12 [Example 52, N-{(2S)-3-[4-(3,4-Dichlorophenoxy)piperidin-1-yl]-2-hydroxypropyl}-N-methyl-1-oxo-1,2-dihydroisoquinoline-4-carboxamide]
104	12.6	Cc1cc(Cl)ccc1OC1CCN(C[C@@H](O)CNC(=O)c2c[nH]c(=O)c3ccccc23)CC1 [Example 186, N-{(2S)-3-[4-(4-Chloro-2-methylphenoxy)piperidin-1-yl]-2-hydroxypropyl}-1-oxo-1,2-dihydroisoquinoline-4-carboxamide acetate salt]
102		O=C(NC[C@@H](O)CN1CCC(Oc2ccc(Cl)c(Cl)c2)CC1)n1c(=O)[nH]c2ccccc21 [Example 45, N-{3-[4-(3,4-Dichlorophenoxy)piperidin-1-yl]-2-hydroxypropyl}-2-oxo-2,3-dihydro-1H-benzimidazole-1-carboxamide]
103		Cc1c(Cl)ccc(OC2CCN(C[C@H](O)CNC(=O)c3c[nH]c(=O)c4cc(S(C)(=O)=O)ccc34)CC2)c1Cl [Example 215, N-{(2R)-3-[4-(2,4-Dichloro-3-methylphenoxy)piperidin-1-yl]-2-hydroxypropyl}-7-(methylsulfonyl)-1-oxo-1,2-dihydroisoquinoline-4-carboxamide acetate salt]
104	7.94	O=C(NC[C@@H](O)CN1CCC(Oc2ccc(Cl)c(Cl)c2)CC1)c1c[nH]c2ccccc12 [Example 47, N-{(2R)-3-[4-(3,4-Dichlorophenoxy)piperidin-1-yl]-2-hydroxypropyl}-1H-indole-3-carboxamide]
